Biological target: F508del-CFTR (Homo sapiens, UniProt P13569, DEL508-508)
Experiment: Ussing chamber short-circuit current, acute cumulative dose response
Assay type: cell-based

EC50: < 1000 nM
Substance: EPX-108380

Source: article PMC4010227 (Journal of computer-aided molecular design, 2010)
